Assays:
[1] = test system: cultured human mast cells (CHMC); experiment: CHMC low cell density IgE activation: tryptase and LTC4 assays; format: cell-based; conditions: read-out: CHMC anti-IgE Tryptase
Experimental: Pellet CHMC cells (980 rpm, 10 min) and resuspend in pre-warmed MT. Add 65 ul of cells to each 96-well plate. Depending on the degranulation activity for each particular CHMC donor, load 1000-1500 cells/well. Mix four times followed by a 1 hr incubation at 37° C. […] Stimulate cells by adding 25 ul of 6× anti-IgE solution to the appropriate plates. Add 25 ul MT to un-stimulated control wells. Mix twice following addition of the anti-IgE. Incubate at 37° C. for 30 minutes. […] Spin plates at 1000 rpm for 10 min to pellet cells. Transfer 25 ul of supernatant to a 96-well black bottom plate and add 100 ul of freshly diluted tryptase substrate solution to each well. Incubate plates at room temperature for 30 min.
Leukotriene C4 (LTC4) is also quantified using an ELISA kit on appropriately diluted supernatant samples (determined empirically for each donor cell population so that the sample measurement falls within the standard curve) following the supplier's instructions.

[2] = test system: cultured human mast cells (CHMC); experiment: CHMC low cell density ionomycin activation: tryptase assay; format: cell-based; conditions: Low Density CHMC, ionomycin activation, tryptase readout, read-out: CHMC Ionomycin Tryptase
[3] = Homo sapiens, Mast cell, Low Density CHMC, anti-IgE activation, tryptase readout
[4] = Low Density CHMC, anti-IgE activation, tryptase readout

Row | IC50 [1, 3] [µM] | IC50 ([2]; Homo sapiens, Mast cell) [µM] | SMILES | other results
1 | > 10 | > 10 | Fc1cnc(NCCc2ccccc2)nc1Nc1ccc2c(c1)OCCO2 (racemic) [Compound R908697, (±)-N4-(3,4-Ethylenedioxyphenyl)-5-fluoro-N2-(2-phenylethyl)-2,4-pyrimidinediamine] | 
2 | 0.326 | 99 | COC(=O)C1Cc2cc(Nc3ncc(F)c(Nc4ccc(Cl)cc4)n3)ccc2O1 (racemic) [Compound R927024, (±)-N4-(4-Chlorophenyl)-N2-(2,3-dihydro-2-methoxycarbonylbenzofuran-5-yl)-5-fluoro-2,4-pyrimidinediamine] | 
3 | 0.26 | > 10 | COC(=O)C1Cc2cc(Nc3ncc(F)c(Nc4ccc(F)c(F)c4)n3)ccc2O1 (racemic) [Compound R927030, (±)-N4-(3,4-Difluorophenyl)-N2-(2,3-dihydro-2-methoxycarbonylbenzofuran-5-yl)-5-fluoro-2,4-pyrimidinediamine] | 
4 | 0.215 | 99 | COC(=O)C1Cc2cc(Nc3ncc(F)c(Nc4ccc(Cl)c(Cl)c4)n3)ccc2O1 (racemic) [Compound R927031, (±)-N4-(3,4-Dichlorophenyl)-N2-(2,3-dihydro-2-methoxycarbonylbenzofuran-5-yl)-5-fluoro-2,4-pyrimidinediamine] | 
5 | 0.583 | > 10 | CNC(=O)C1Cc2cc(Nc3ncc(F)c(Nc4ccc(F)c(F)c4)n3)ccc2O1 (racemic) [Compound R927035, (±)-N4-(3,4-Difluorophenyl)-5-fluoro-N2-[2,3-dihydro-2-(N-methylamino)carbonylbenzofuran-5-yl]-2,4-pyrimidinediamine] | 
6 | 0.233 | > 10 | CNC(=O)C1Cc2cc(Nc3ncc(F)c(Nc4ccc(Cl)c(Cl)c4)n3)ccc2O1 (racemic) [Compound R927037, (±)-N4-(3,4-Dichlorophenyl)-N2-[2,3-dihydro-2-(N-methylamino)carbonylbenzofuran-5-yl]-5-fluoro-2,4-pyrimidinediamine] | 
7 | > 10 | > 10 | CC(Nc1nc(Nc2cccc(O)c2)ncc1F)c1ccc(F)cc1 (racemic) [Compound R935021, (±)-5-Fluoro-N4-[1-(4-fluorophenyl)ethyl]-N2-(3-hydroxyphenyl)-2,4-pyrimidinediamine] | 
8 | > 10 | > 10 | CC(Nc1nc(Nc2cccc(O)c2)ncc1Br)c1ccc(F)cc1 (racemic) [Compound R935023, (±)-5-Bromo-N4-[1-(4-fluorophenyl)ethyl]-N2-(3-hydroxyphenyl)-2,4-pyrimidinediamine] | 
9 |  | > 10 | CCOc1ccc(Nc2ncc(F)c(Nc3ccc(OCC)cc3)n2)cc1 [Compound R070790, N2,N4-bis(4-ethoxyphenyl)-5-fluoro-2,4-pyrimidinediamine] | 
10 | 0.217 | > 10 | O=C1COc2cc(Nc3ncc(F)c(Nc4cccc(O)c4)n3)ccc2N1 [Compound R908699, N2-(1,4-Benzoxazin-3-on-7-yl)-5-fluoro-N4-(3-hydroxyphenyl)-2,4-pyrimidinediamine] | 
11 |  | > 10 | COC(=O)c1cc2cc(Nc3ncc(F)c(Nc4ccc(OC)c(Cl)c4)n3)ccc2o1 [Compound R926950, N4-(3-Chloro-4-methoxyphenyl)-5-fluoro-N2-[2-(methoxycarbonyl)benzofuran-5-yl]-2,4-pyrimidinediamine] | 
12 |  | > 10 | OCCOc1ccc(Nc2ncc(F)c(Nc3cccc(O)c3)n2)cc1 [Compound R935155, 5-Fluoro-N2-[4-(2-hydroxyethoxy)phenyl]-N4-(3-hydroxyphenyl)-2,4-pyrimidinediamine] | 
13 | 4.9 |  | Cc1ccc(Nc2ccnc(Nc3ccc(C)c(N)c3)n2)cc1N [Compound R950130, N2,N4-Bis(3-amino-4-methylphenyl)-2,4-pyrimidinediamine] | 
14 | > 10 |  | Cc1ccc(N)cc1Nc1ncc(F)c(Nc2cc(N)ccc2C)n1 [Compound R950157, N2,N4-Bis(5-amino-2-methylphenyl)-5-fluoro-2,4-pyrimidinediamine] | 
15 | 2.54 |  | CC(=O)c1cccc(Nc2ncc(F)c(Nc3cccc(C(C)=O)c3)n2)c1 [Compound R950376, N2,N4-Bis(3-methylcarbonylphenyl)-5-fluoro-2,4-pyrimidinediamine] | 

Continued, molecule first:

Row | SMILES | IC50 [1, 3] [µM] | IC50 ([2]; Homo sapiens, Mast cell) [µM] | other results
16 | CNC(=O)COc1cccc(Nc2ncc(F)c(Nc3ccc4c(c3)C(O)CCC4)n2)c1 (racemic) [Compound R926949, 5-Fluoro-N4-(1,2,3,4-tetrahydro-1-hydroxynaphthalen-7-yl)-N2-[3-[(N-methylamino)carbonylmethyleneoxy]phenyl]-2,4-pyrimidinediamine] |  |  | IC50 [1, 4]: 0.089 µM; IC50 [2]: > 10 µM
17 | CNC(=O)C1Cc2cc(Nc3ncc(F)c(Nc4ccc(OC)nc4OC)n3)ccc2O1 (racemic) [Compound R927038, (±)-N4-(2,6-Dimethoxypyridin-3-yl)-N2-[2,3-dihydro-2-(N-methylamino)carbonylbenzofuran-5-yl]-5-fluoro-2,4-pyrimidinediamine] | 1.05 | > 10 | 
18 | CNC(=O)COc1cccc(Nc2ncc(F)c(Nc3ccc4c(c3)C(=O)CCC4)n2)c1 [Compound R926947, 5-Fluoro-N4-(1,2,3,4-tetrahydro-1-oxonaphthalen-7-yl)-N2-[3-[(N-methylamino)carbonylmethyleneoxy]phenyl]-2,4-pyrimidinediamine] |  |  | IC50 [2]: > 10 µM
19 | CNC(=O)Cn1ncc2cc(Nc3ncc(F)c(Nc4ccc(OC(C)C)cc4)n3)ccc21 [Compound R935239, 5-Fluoro-N4-(4-isopropoxyphenyl)-N2-[1-(N-methylaminocarbonyl)methyl-indazoline-5-yl]-2,4-pyrimidinediamine] |  |  | IC50 [2]: > 10 µM
20 | Nc1c(F)ccc(Nc2ccnc(Nc3ccc(F)c(N)c3F)n2)c1F [Compound R950131, N2,N4-Bis(3-amino-2,4-difluorophenyl)-2,4-pyrimidinediamine] | > 10 |  | 
21 | COC(=O)c1cc(N)cc(Nc2ccnc(Nc3cc(N)cc(C(=O)OC)c3)n2)c1 [Compound R950132, N2,N4-Bis(3-amino-5-methoxycarbonylphenyl)-2,4-pyrimidinediamine] | 9 |  | 
22 | Nc1c(F)ccc(Nc2ncc(F)c(Nc3ccc(F)c(N)c3F)n2)c1F [Compound R950138, N2,N4-Bis(3-amino-2,4-difluorophenyl)-5-fluoro-2,4-pyrimidinediamine] | 9.5 |  | 
23 | CCOc1ccc(Nc2ccnc(Nc3ccc(OCC)c(N)c3)n2)cc1N [Compound R950142, N2,N4-Bis(3-amino-4-ethoxyphenyl)-2,4-pyrimidinediamine] | 10 |  | 
24 | Nc1cc(Nc2ccnc(Nc3cc(N)cc(C(F)(F)F)c3)n2)cc(C(F)(F)F)c1 [Compound R950143, N2,N4-Bis(3-amino-5-trifluoromethylphenyl)-2,4-pyrimidinediamine] | 8.23 |  | 
25 | Cc1ccc(Nc2ncc(F)c(Nc3ccc(C)c([N+](=O)[O-])c3)n2)cc1[N+](=O)[O-] [Compound R950144, N2,N4-Bis(4-methyl-3-nitrophenyl)-5-fluoro-2,4-pyrimidinediamine] |  |  | IC50 ([1]; Homo sapiens, Mast cell): 10 µM
26 | Cc1ccc([N+](=O)[O-])cc1Nc1ncc(F)c(Nc2cc([N+](=O)[O-])ccc2C)n1 [Compound R950146, N2,N4-Bis(2-methyl-5-nitrophenyl)-5-fluoro-2,4-pyrimidinediamine] |  |  | IC50 ([1]; Homo sapiens, Mast cell): > 10 µM
27 | O=[N+]([O-])c1ccc(F)c(Nc2ncc(F)c(Nc3cc([N+](=O)[O-])ccc3F)n2)c1 [Compound R950147, N2,N4-Bis(2-fluoro-5-nitrophenyl)-5-fluoro-2,4-pyrimidinediamine] |  |  | IC50 ([1]; Homo sapiens, Mast cell): > 10 µM
28 | COc1ccc([N+](=O)[O-])cc1Nc1ncc(F)c(Nc2cc([N+](=O)[O-])ccc2OC)n1 [Compound R950151, N2,N4-Bis(2-methoxy-5-nitrophenyl)-5-fluoro-2,4-pyrimidinediamine] |  |  | IC50 ([1]; Homo sapiens, Mast cell): > 10 µM
29 | O=[N+]([O-])c1cc(Nc2ccnc(Nc3ccc(F)c([N+](=O)[O-])c3)n2)ccc1F [Compound R950152, N2,N4-Bis(4-fluoro-3-nitrophenyl)-2,4-pyrimidinediamine] |  |  | IC50 ([1]; Homo sapiens, Mast cell): 10 µM
30 | Cc1ccc(Nc2ccnc(Nc3ccc(C)c([N+](=O)[O-])c3)n2)cc1[N+](=O)[O-] [Compound R950153, N2,N4-Bis(4-methyl-3-nitrophenyl)-2,4-pyrimidinediamine] |  |  | IC50 ([1]; Homo sapiens, Mast cell): > 10 µM
31 | O=[N+]([O-])c1ccc(O)c(Nc2ccnc(Nc3cc([N+](=O)[O-])ccc3O)n2)c1 [Compound R950155, N2,N4-Bis(2-hydroxy-5-nitrophenyl)-2,4-pyrimidinediamine] |  |  | IC50 ([1]; Homo sapiens, Mast cell): > 10 µM
32 | Nc1ccc(F)c(Nc2ncc(F)c(Nc3cc(N)ccc3F)n2)c1 [Compound R950158, N2,N4-Bis(5-amino-2-fluorophenyl)-5-fluoro-2,4-pyrimidinediamine] | 9.98 |  | 
33 | CCOC(=O)CNc1cccc(Nc2ncc(F)c(Nc3cccc(O)c3)n2)c1 [Compound R950216] |  |  | IC50 [1, 4]: 0.327 µM
34 | CNC(=O)CNc1cccc(Nc2ncc(F)c(Nc3cccc(O)c3)n2)c1 [Compound R950218] |  |  | IC50 [2]: > 10 µM
35 | COC(=O)c1cc(Nc2ncc(F)c(Nc3ccc(OC(F)(F)F)c(C(=O)OC)c3)n2)ccc1OC(F)(F)F [Compound R950391, N2,N4-Bis(3-methoxycarbonyl-4-trifluoromethoxyphenyl)-5-fluoro-2,4-pyrimidinediamine] |  | > 10 | 
